From ChEMBL document CHEMBL5543061, “Recent advances of antitumor leading compound Erianin: Mechanisms of action and structural modification” (Eur J Med Chem, 2023)
Blank lines part the entries; values can stand above or below the compound they belong to.

Tests used:
HepG2 [1] = assay: Anticancer activity against human HepG2 cells assessed as reduction in cell viability; assay type: functional, cell-based
Bel-7402 = assay: Antiproliferative activity against human Bel-7402 cells incubated for 72 hrs by MTT assay; assay type: functional, cell-based; settings: Bel-7402, 72 h
LNCaP [2] = assay: Cytotoxicity against human LNCaP cells assessed as reduction in cell growth incubated for 24 hrs by MTT assay; assay type: functional, cell-based
[3] = Half life in Beagle dog at 30 mg/kg, iv measured for 8 to 12 hrs by LC-MS/MS analysis; assay type: ADME, organism-based, Canis lupus familiaris; settings: in vivo, time 8-12 hrs
[4] = Half life in Beagle dog at 7.5 mg/kg, iv measured for 8 to 12 hrs by LC-MS/MS analysis; assay type: ADME, organism-based, Canis lupus familiaris; settings: in vivo, time 8-12 hrs
[5] = Antiproliferative activity against human EFM-192A cells; assay type: functional, cell-based
HepG2 [6] = assay: Antiproliferative activity against human HepG2 cells; assay type: functional, cell-based
HCC 2998 = assay: Antiproliferative activity against human HCC 2998 cells assessed as reduction in cell viability incubated for 72 hrs by MTT assay; assay type: functional, cell-based; settings: HCC 2998, 72 h
[7] = Antiproliferative activity against human MG-63.3 cells assessed as reduction in cell viability measured for 24 hrs by MTT assay; assay type: functional, cell-based; settings: MG-63.3, 24 h
[8] = Antiproliferative activity against human MG-63.3 cells assessed as reduction in cell viability measured for 72 hrs by MTT assay; assay type: functional, cell-based; settings: MG-63.3, 72 h
Huh-7 = assay: Antiproliferative activity against human Huh-7 cells; assay type: functional, cell-based
HuH-1 = assay: Antiproliferative activity against human HuH-1 cells; assay type: functional, cell-based
SMMC-7721 = assay: Antiproliferative activity against human SMMC-7721 cells assessed as reduction in cell viability incubated for 24 hrs by CCK-8 assay; assay type: functional, cell-based; settings: SMMC-7721, 24 h
A549 [9] = assay: Antiproliferative activity against human A549 cells assessed as reduction in cell viability incubated for 48 hrs by MTT assay; assay type: functional, cell-based; settings: A549, 48 h
HCT-116 [10] = assay: Antiproliferative activity against human HCT-116 cells assessed as reduction in cell viability incubated for 72 hrs by MTT assay; assay type: functional, cell-based; settings: HCT-116, 72 h
Ishikawa = assay: Antiproliferative activity against human Ishikawa cells assessed as reduction in cell viability by MTS assay; assay type: functional, cell-based
[11] = Half life in rat at 50 mg/kg, iv; assay type: ADME, organism-based; settings: in vivo
HepG2 [12] = assay: Antiproliferative activity against human HepG2 cells assessed as reduction in cell growth; assay type: functional, cell-based
LLC-MK2 = assay: Antiproliferative activity against Rhesus monkey LLC-MK2 cells assessed as reduction in cell viability incubated for 48 hrs by MTT assay; assay type: functional, cell-based; settings: Macaca mulatta, LLC-MK2, 48 h
MCF7 [13] = assay: Antiproliferative activity against human MCF7 cells assessed as reduction in cell viability incubated for 72 hrs by MTT assay; assay type: functional, cell-based; settings: MCF7, 72 h
HepG2 [14] = assay: Antiproliferative activity against human HepG2 cells assessed as inhibition of cell growth relative to control; assay type: functional; design: scale not given: the % may be the effect or the level left
HL-60 [15] = assay: Antiproliferative activity against human HL-60 cells assessed as reduction in cell viability incubated for 72 hrs by MTT assay; assay type: functional, cell-based; settings: HL-60, 72 h
LNCaP [16] = assay: Cytotoxicity against human LNCaP cells assessed as reduction in cell growth incubated for 72 hrs by MTT assay; assay type: functional, cell-based
143B [17] = assay: Antiproliferative activity against human 143B cells assessed as inhibition of cell growth measured after 24 hrs by MTT assay; assay type: functional, cell-based
[18] = Antiproliferative activity against human MG-63.3 cells assessed as reduction in cell viability measured for 48 hrs by MTT assay; assay type: functional, cell-based; settings: MG-63.3, 48 h
A-375 = assay: Antiproliferative activity against human A-375 cells assessed as reduction in cell viability incubated for 72 hrs by MTT assay; assay type: functional, cell-based; settings: A-375, 72 h
LNCaP [19] = assay: Cytotoxicity against human LNCaP cells assessed as reduction in cell growth incubated for 48 hrs by MTT assay; assay type: functional, cell-based
HeLa [20] = assay: Antiproliferative activity against human HeLa cells assessed as reduction in cell viability by MTT assay; assay type: functional, cell-based
A549 [21] = assay: Antiproliferative activity against human A549 cells assessed as reduction in cell viability incubated for 72 hrs by MTT assay; assay type: functional, cell-based; settings: A549, 72 h
[22] = Half life in Beagle dog at 15 mg/kg, iv measured for 8 to 12 hrs by LC-MS/MS analysis; assay type: ADME, organism-based, Canis lupus familiaris; settings: in vivo, time 8-12 hrs
SK-MEL3 = assay: Antiproliferative activity against human SK-MEL3 cells harboring BRAF V600E mutant assessed as reduction in cell viability by cell-titer Glo assay; assay type: functional, cell-based
[23] = Oral bioavailability in rat at 10 mg/kg; assay type: ADME, organism-based; settings: in vivo
PC-3 = assay: Antiproliferative activity against human PC-3 cells assessed as reduction of cell viability incubated for 24 to 72 hrs by CCK-8 assay; assay type: functional, cell-based
NCI-H1975 = assay: Antiproliferative activity against human NCI-H1975 cells assessed as reduction in cell viability incubated for 48 hrs by MTT assay; assay type: functional, cell-based; settings: NCI-H1975, 48 h
143B [24] = assay: Antiproliferative activity against human 143B cells assessed as inhibition of cell growth measured after 72 hrs by MTT assay; assay type: functional, cell-based
[25] = Half life in rat at 25 mg/kg, iv; assay type: ADME, organism-based; settings: in vivo
[26] = Elimination half life in rat at 2 mg/kg, iv; assay type: ADME, organism-based; settings: in vivo, read-out: beta t1/2 (converted)
[27] = Antiproliferative activity against human SNU-739 cells; assay type: functional, cell-based
HepG2 [28] = assay: Anticancer activity against human HepG2 cells assessed as reduction in cell viability measured for 24 hrs by MTT assay; assay type: functional, cell-based; settings: HepG2, 24 h
[29] = Antiproliferative activity against human HEC-251 cells assessed as reduction in cell viability; assay type: functional, cell-based
HLE = assay: Antiproliferative activity against human HLE cells; assay type: functional, cell-based
HeLa [30] = assay: Antiproliferative activity against human HeLa cells assessed as reduction in cell viability incubated for 48 hrs by MTT assay; assay type: functional, cell-based
EJM = assay: Antitumor activity against human EJM cells assessed as reduction in cell viability incubated for 24 hrs by CCK-8 assay; assay type: functional, cell-based
143B [31] = assay: Antiproliferative activity against human 143B cells assessed as inhibition of cell growth measured after 48 hrs by MTT assay; assay type: functional, cell-based
MDA-MB-468 = assay: Antiproliferative activity against human MDA-MB-468 cells assessed as reduction in cell viability incubated for 72 hrs by MTT assay; assay type: functional, cell-based; settings: MDA-MB-468, 72 h
MDA-MB-231 = assay: Antiproliferative activity against human MDA-MB-231 cells assessed as reduction in cell viability incubated for 24 hrs by MTT assay; assay type: functional, cell-based; settings: MDA-MB-231, 24 h
HL-60 [32] = assay: Cytotoxicity against human HL-60 cells assessed as reduction in cell viability incubated for 48 hrs by MTT assay; assay type: functional, cell-based; settings: HL-60, 48 h
PLC-PRF-5 = assay: Antiproliferative activity against human PLC-PRF-5 cells; assay type: functional, cell-based
T-24 = assay: Antiproliferative activity against human T24 cells assessed as reduction in cell viability incubated for 48 hrs by MTT assay; assay type: functional, cell-based; settings: T-24, 48 h
SNU-449 = assay: Antiproliferative activity against human SNU-449 cells; assay type: functional, cell-based
MIA PaCa-2 = assay: Antiproliferative activity against human MIA PaCa-2 cells assessed as reduction of cell viability incubated for 72 hrs by CCK-8 assay; assay type: functional, cell-based; settings: MIA PaCa-2, 72 h
[33] = Half life in rat at 100 mg/kg, iv; assay type: ADME, organism-based; settings: in vivo
HepG2 [34] = assay: Anticancer activity against human HepG2 cells assessed as cell growth reduction incubated for 48 hrs by MTT assay; assay type: functional, cell-based; settings: HepG2, 48 h
HepG2 [35] = assay: Anticancer activity against human HepG2 cells assessed as cell growth reduction incubated for 24 hrs by MTT assay; assay type: functional, cell-based; settings: HepG2, 24 h
A549 [36] = assay: Cytotoxicity against human A549 cells assessed as reduction in cell viability incubated for 48 hrs by Alamar Blue assay; assay type: functional, cell-based; settings: A549, 48 h
HCT-116 [37] = assay: Anticancer activity against human HCT-116 cells; assay type: functional, cell-based
MCF7 [38] = assay: Cytotoxicity against human MCF7 cells assessed as reduction in cell viability incubated for 72 hrs by MTT assay; assay type: functional, cell-based; settings: MCF7, 72 h
HeLa [39] = assay: Cytotoxicity against human HeLa cells assessed as reduction in cell viability by MTT assay; assay type: functional, cell-based
HCT-116 [40] = assay: Antiproliferative activity against human HCT-116 cells assessed as inhibition of cell growth incubated for 72 hrs by CCK-8 assay relative to control; assay type: functional; design: scale not given: the % may be the effect or the level left
HepG2 [41] = assay: Antiproliferative activity against human HepG2 cells assessed as inhibition of cell growth incubated for 72 hrs by CCK-8 assay relative to control; assay type: functional; design: scale not given: the % may be the effect or the level left
HeLa [42] = assay: Antiproliferative activity against human HeLa cells assessed as inhibition of cell growth incubated for 72 hrs by CCK-8 assay relative to control; assay type: functional; design: scale not given: the % may be the effect or the level left

IC50 (HepG2 [1]): 72.8 nM
IC50 (Bel-7402): 21.5 nM
half-life [3]: 1.6 h
half-life [4]: 1.41 h
IC50 (HepG2 [6]): 584 nM
IC50 (HCC 2998): 70 nM
IC50 (Huh-7): 44.3 nM
IC50 (HuH-1): 25.9 nM
IC50 (SMMC-7721): 81 nM
IC50 (A549 [9]): 0.6 nM
IC50 (HCT-116 [10]): 60 nM
half-life [11]: 3.75 h
IC50 (HepG2 [12]): 175 nM
IC50 (MCF7 [13]): 60 nM
IC50 (HL-60 [15]): 38 nM
IC50 (A-375): 20.6 nM
IC50 (HeLa [20]): 220 nM
IC50 (A549 [21]): 70 nM
half-life [22]: 1.66 h
IC50 (SK-MEL3): 12 nM
bioavailability [23]: 8.7%
IC50 (PC-3): 26 nM
IC50 (NCI-H1975): 0.5 nM
half-life [25]: 3.66 h
half-life [26]: 1.5 h
IC50 (HepG2 [28]): 43.7 nM
IC50 (HeLa [30]): 8300 nM
IC50 (MDA-MB-468): 40 nM
IC50 (MDA-MB-231): 71 nM
IC50 (SNU-449): 236 nM
IC50 (MIA PaCa-2): 50 nM
half-life [33]: 3.89 h
IC50 (HepG2 [34]): 120 nM
IC50 (HepG2 [35]): 128 nM
SMILES: COc1ccc(CCc2cc(OC)c(OC)c(OC)c2)cc1O
IC50 (LNCaP [2]): 33.8 nM
IC50 [5]: 78.6 nM
IC50 [7]: 88.7 nM
IC50 [8]: 17.2 nM
IC50 (Ishikawa): 40.6 nM
IC50 (LLC-MK2): 2.3 nM
Activity (HepG2 [14]): 82.81%
IC50 (LNCaP [16]): 26.2 nM
IC50 (143B [17]): 58.2 nM
IC50 [18]: 44.3 nM
IC50 (LNCaP [19]): 26.5 nM
IC50 (143B [24]): 26.8 nM
IC50 [27]: 17.7 nM
IC50 [29]: 41.8 nM
IC50 (HLE): 28.6 nM
IC50 (EJM): 65 nM
IC50 (143B [31]): 41 nM
IC50 (HL-60 [32]): 40 nM
IC50 (PLC-PRF-5): 55 nM
IC50 (T-24): 45.9 nM

IC50 (HCT-116 [37]): 42000 nM
SMILES: Oc1ccc(CCc2cc(O)c(O)c(O)c2)cc1O
IC50 (A549 [36]): 42000 nM

SMILES: COc1cc(CCc2ccc(OC(F)F)c(N)c2)cc(OC)c1OC
IC50 (MCF7 [38]): 130 nM

SMILES: CCOc1ccc(CCc2cc(OC)c(OC)c(OC)c2)cc1OP(=O)(O)O
IC50 (HeLa [39]): 570 nM

SMILES: COc1ccc(/C=C\c2cc(OC)c(OC)c(OC)c2)cc1OP(=O)(O)O [FOSBRETABULIN]
Activity (HCT-116 [40]): 86.1%
Activity (HepG2 [41]): 88.6%
Activity (HeLa [42]): 84.7%
